Experimental findings from patent US20100292222A1, “CHEMICAL COMPOUNDS 751” (ASTRAZENECA AB, priority 2009, published 2010) are described below.

For the test, the target named is T1, Androgen Receptor (AR) (Homo sapiens, UniProt P10275, T878A).
T1 construct: cell based immuno-fluorescence assay using the LNCaP prostate epithelial cell line; host or cells: LNCaP clone FGC prostate carcinoma cells
T1 sequence (P10275 1-920 T878A): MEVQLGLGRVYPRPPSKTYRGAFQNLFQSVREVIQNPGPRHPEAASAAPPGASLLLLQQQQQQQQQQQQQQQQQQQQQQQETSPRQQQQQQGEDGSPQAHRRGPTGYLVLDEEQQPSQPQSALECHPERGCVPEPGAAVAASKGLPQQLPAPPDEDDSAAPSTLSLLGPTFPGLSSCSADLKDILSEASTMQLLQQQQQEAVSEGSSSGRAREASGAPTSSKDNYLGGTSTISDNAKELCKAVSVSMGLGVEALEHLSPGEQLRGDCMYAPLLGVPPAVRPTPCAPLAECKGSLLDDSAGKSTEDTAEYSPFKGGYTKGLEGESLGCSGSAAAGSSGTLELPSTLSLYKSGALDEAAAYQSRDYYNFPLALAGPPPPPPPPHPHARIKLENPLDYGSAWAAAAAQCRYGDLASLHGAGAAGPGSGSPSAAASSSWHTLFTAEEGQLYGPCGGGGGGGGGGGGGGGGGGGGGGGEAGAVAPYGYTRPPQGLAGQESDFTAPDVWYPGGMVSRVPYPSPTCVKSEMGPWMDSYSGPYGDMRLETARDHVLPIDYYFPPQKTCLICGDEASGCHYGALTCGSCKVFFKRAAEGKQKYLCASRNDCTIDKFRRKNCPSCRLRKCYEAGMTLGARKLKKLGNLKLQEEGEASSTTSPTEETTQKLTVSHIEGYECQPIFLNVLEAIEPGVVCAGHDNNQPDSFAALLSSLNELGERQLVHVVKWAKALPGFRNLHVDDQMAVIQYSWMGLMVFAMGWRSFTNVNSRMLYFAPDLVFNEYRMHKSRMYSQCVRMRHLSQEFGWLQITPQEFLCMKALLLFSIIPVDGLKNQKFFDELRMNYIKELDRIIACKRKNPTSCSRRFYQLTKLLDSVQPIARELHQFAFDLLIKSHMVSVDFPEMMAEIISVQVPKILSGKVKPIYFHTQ
Briefly: LNCaP Androgen Receptor Down-Regulation Cell Assay. The following applies: LNCaP prostate carcinoma cell line; 20-22 hours incubation; immunofluorescence; 50% reduction of the AR signal. It is filed as cell-based. The procedure: The ability of compounds to reduce Androgen Receptor (AR) numbers was assessed in a cell based immuno-fluorescence assay using the LNCaP prostate epithelial cell line.
This immunofluorescence end point assay measures the ability of a test compound to down-regulate and reduce measured levels of the AR in the LNCaP prostate carcinoma cell line (LNCaP clone FGC (CRL-1740) obtained from the American Type Culture Collection (ATCC)).
LNCaP cells were cultured in Growth Medium (phenol red free Roswell Park Memorial Institute (RPMI) 1640 (Invitrogen Code no. 11835-063) containing 2 mM L-Glutamine (Invitrogen Code no. 25030-024) and 1% (v/v) Penicillin/Streptomycin (10000 units/ml Penicillin and 10000 μg/ml of Streptomycin utilising penicillin G (sodium salt) and streptomycin sulphate: prepared in normal saline, Invitrogen Code no. 15140122) and 10% (v/v) foetal bovine serum (FBS)) in a 5% CO2 air incubator at 37° C. Cells for assay were harvested from T175 stock flasks by washing once in PBS (phosphate buffered saline, pH 7.4) (Invitrogen Code no. 14190-094) and harvested using 5 mls of 1× Trypsin/ethylaminediaminetetraacetic acid (EDTA) (10× Trypsin-EDTA, 5.0 g/L Trypsin, 2.0 g/L of EDTA•4Na and 8.5 g/L of NaCl, without Phenol Red, Invitrogen Code no. 15400-054) diluted in PBS solution. A 5 ml volume of Growth Medium was added to each flask (as above except that 5% (v/v) charcoal stripped FBS (HyClone Code no. SH30068.03) was included instead of 10% (v/v) FBS). Cells were syringed at least twice using a sterile 18G×1.5″ (1.2×40 mm) broad gauge needle and cell density was measured using a haemocytometer. Cells were further diluted in Growth Medium plus 5% (v/v) charcoal stripped FBS and seeded at a density of 6.5×10^3 cells per well (in 90 ul) into transparent, black, tissue culture treated 96 well plates (Packard, No. 6005182).
Test data reported herein was generated using two different compounds preparation and dosing methods. In method (1) a 10 mM compound stock solution in 100% (v/v) DMSO was serially diluted in 4-fold steps in 100% (v/v) DMSO using a Thermo Scientific Matrix SerialMate. The diluted compounds were then further diluted 1 in 30 in assay media using a Thermo Scientific Matrix PlateMate and a 10 μl aliquot of this dilution was dosed to cells manually using a multi-channel pipette. In method (2) starting with a 10 mM compound stock solution, the Labcyte Echo 550 was used to generate a compound concentration response set diluted in 30 μl of assay media. The Echo 550 is a liquid handler that uses acoustic technology to perform direct microplate-to-microplate transfers of DMSO compound solutions. The system can be programmed to transfer volumes as low as […] in multiple increments between microplates and in so doing generates a serial dilution of compound which is then back-filled to normalise the DMSO is concentration across the dilution range. A 10 μl volume of diluted compound is then dosed to cells using a Thermo Scientific Matrix PlateMate.
Plates were incubated overnight at 37° C., 5% CO2. Wells were then dosed with compound prepared by one of the 2 methods above and further incubated for 20-22 hours at 37° C., 5% CO2. Plates were fixed by the addition of 20 μl of 10% (v/v) formaldehyde solution (in PBS) to each well (final formaldehyde conc.=1.67% (v/v)) and left at room temperature for 10 mins. This fixative solution was removed and cells were washed with 250 μl of PBS/0.05% (v/v) Tween 20 (PBST) using an automated plate washer. This process was then repeated twice more.
Immunostaining was performed at room temperature. Cells were permeabilised by the addition of 35 μl of PBS containing 0.5% Tween 20 and incubated for 1 hour at room temperature. Permeabilisation solution was removed and cells were washed with 250 μl of PBST using an automated plate washer. This process was then repeated twice more. […]
A word on the IC50: it is the concentration that inhibits the measured activity by half. Lower therefore signals greater potency. For `CC(=O)N1CCN([C@H](C)COc2ccc(C3(O)CCN(c4ccc5nnc(C(F)(F)F)n5n4)CC3)cc2)CC1` (single isomer, unassigned) [Example 43, 4-{4-[2-(4-acetylpiperazin-1-yl)propoxy]phenyl}-1-[3-(trifluoromethyl)[1,2,4]triazolo[4,3-b]pyridazin-6-yl]piperidin-4-ol], the IC50 was determined as 84 nM. In other words, the double-digit nanomolar range.
`CC(=O)N1CCN([C@H](C)COc2ccc(C3(O)CCN(c4ccc5nnc(C(F)(F)F)n5n4)CC3)cc2)CC1` (single isomer, unassigned) [Example 44, 4-{4-[2-(4-acetylpiperazin-1-yl)propoxy]phenyl}-1-[3-(trifluoromethyl)[1,2,4]triazolo[4,3-b]pyridazin-6-yl]piperidin-4-ol] displayed an IC50 of 36 nM.
`CC(=O)N1CCCN([C@H](C)COc2ccc(C3(O)CCN(c4ccc5nnc(C(F)(F)F)n5n4)CC3)cc2)CC1` (single isomer, unassigned) [Example 45, 4-{4-[2-(4-acetyl-1,4-diazepan-1-yl)propoxy]phenyl}-1-[3-(trifluoromethyl)[1,2,4]triazolo[4,3-b]pyridazin-6-yl]piperidin-4-ol]: 82 nM corresponded to half-maximal inhibition (IC50).
`CC(=O)N1CCCN([C@H](C)COc2ccc(C3(O)CCN(c4ccc5nnc(C(F)(F)F)n5n4)CC3)cc2)CC1` (single isomer, unassigned) [Example 46, 4-{4-[2-(4-acetyl-1,4-diazepan-1-yl)propoxy]phenyl}-1-[3-(trifluoromethyl)[1,2,4]triazolo[4,3-b]pyridazin-6-yl]piperidin-4-ol] had an IC50 of 18 nM.
For the compound `CC(=O)N1CCN(CCCOc2ccc(N3CCN(c4ccc5nnc(C(F)(F)F)n5n4)CC3)cc2)CC1` [Example 1.1, 6-(4-{4-[3-(4-acetylpiperazin-1-yl)propoxy]phenyl}piperazin-1-yl)-3-(trifluoromethyl)[1,2,4]-triazolo[4,3-b]pyridazine], the IC50 amounted to 1500 nM.
The value for `CN1CCN(CCOc2ccc(C3CCN(c4ccc5nnc(C(F)(F)F)n5n4)CC3)cc2)CC1=O` [Example 2, 1-methyl-4-[2-(4-{1-[3-(trifluoromethyl)[1,2,4]-triazolo[4,3-b]pyridazin-6-yl]piperidin-4-yl}phenoxy)ethyl]piperazin-2-one] was 310 nM; that for `CN1CCN(CCOc2ccc(C3(O)CCN(c4ccc5nnc(C(F)(F)F)n5n4)CC3)cc2)CC1=O` [Example 3, 4-[2-(4-[4-hydroxy-1-[3-(trifluoromethyl)[1,2,4]-triazolo[4,3-b]pyridazin-6-yl]piperidin-4-yl]phenoxy)ethyl]-1-methylpiperazin-2-one] was 360 nM; that for `CN1CCN(CCOc2ccc(N3CCN(c4ccc5nnc(C(F)(F)F)n5n4)CC3)cc2)CC1=O` [Example 4, 1-methyl-4-[2-(4-{4-[3-(trifluoromethyl)[1,2,4]triazolo[4,3-b]pyridazin-6-yl]piperazin-1-yl}phenoxy)ethyl]piperazin-2-one] was 5700 nM.
The value for `O=C1CN(CCOc2ccc(N3CCN(c4ccc5nnc(C(F)(F)F)n5n4)CC3)cc2)CCN1C1CC1` [Example 5, 1-cyclopropyl-4-[2-(4-{4-[3-(trifluoromethyl)[1,2,4]-triazolo[4,3-b]pyridazin-6-yl]piperazin-1-yl}phenoxy)ethyl]piperazin-2-one] was 7800 nM.
In the case of `O=C1CN(CCOc2ccc(C3CCN(c4ccc5nnc(C(F)(F)F)n5n4)CC3)cc2)CCN1C1CC1` [Example 6, 1-cyclopropyl-4-[2-(4-{1-[3-(trifluoromethyl)[1,2,4]-triazolo[4,3-b]pyridazin-6-yl]piperidin-4-yl}phenoxy)ethyl]piperazin-2-one], the IC50 is 510 nM.
On to `CN1CCN(CCOc2ccc(N3CCN(c4ccc5nnc(C(F)(F)F)n5n4)CC3)cc2)C(=O)C1` [Example 7, 4-methyl-1-[2-(4-{4-[3-(trifluoromethyl)[1,2,4]-triazolo[4,3-b]pyridazin-6-yl]piperazin-1-yl}phenoxy)ethyl]piperazin-2-one], for which the IC50 is 6500 nM.
In turn, `CN1CCN(CCOc2ccc(C3CCN(c4ccc5nnc(C(F)(F)F)n5n4)CC3)cc2)C(=O)C1` [Example 8, 4-methyl-1-[2-(4-{1-[3-(trifluoromethyl)[1,2,4]triazolo[4,3-b]pyridazin-6-yl]piperidin-4-yl}phenoxy)ethyl]piperazin-2-one] had an IC50 of 1000 nM. This IC50 is about 6.5-fold lower than that of the compound before.
The compound `CN1CCN(CCCOc2ccc(C3CCN(c4ccc5nnc(C(F)(F)F)n5n4)CC3)cc2)CC1=O` [Example 9, 1-methyl-4-[3-(4-{1-[3-(trifluoromethyl)[1,2,4]triazolo[4,3-b]pyridazin-6-yl]piperidin-4-yl}phenoxy)propyl]piperazin-2-one] displayed a half-inhibitory concentration (IC50) of 300 nM.
In turn, `O=C1CN(CCCOc2ccc(C3CCN(c4ccc5nnc(C(F)(F)F)n5n4)CC3)cc2)CCN1C1CC1` [Example 10, 1-cyclopropyl-4-[3-(4-{1-[3-(trifluoromethyl)[1,2,4]triazolo[4,3-b]pyridazin-6-yl]piperidin-4-yl}phenoxy)propyl]piperazin-2-one] gave an IC50 of 410 nM.
`CN1CCN(CCOc2ccc(C3CCN(c4ccc5nnc(C(F)(F)F)n5n4)CC3)cn2)CC1=O` [Example 11, 1-methyl-4-{2-[(5-{1-[3-(trifluoromethyl)[1,2,4]triazolo[4,3-b]pyridazin-6-yl]piperidin-4-yl}pyridin-2-yl)oxy]ethyl}piperazin-2-one] yielded an IC50 of 1600 nM.
With `CN1CCN(CCOc2ccc(C3(O)CCN(c4ccc5nnc(C(F)(F)F)n5n4)CC3)cc2F)CC1=O` [Example 12, 4-[2-(2-fluoro-4-{4-hydroxy-1-[3-(trifluoromethyl)[1,2,4]triazolo[4,3-b]pyridazin-6-yl]piperidin-4-yl}phenoxy)ethyl]-1-methylpiperazin-2-one], the IC50 worked out at 670 nM.
In turn, `CN1CCN(CCOc2ccc(C3CCN(c4ccc5nnc(C(F)(F)F)n5n4)CC3)cc2F)CC1=O` [Example 13, 4-[2-(2-fluoro-4-{1-[3-(trifluoromethyl)[1,2,4]triazolo[4,3-b]pyridazin-6-yl]piperidin-4-yl}phenoxy)ethyl]-1-methylpiperazin-2-one] displayed an IC50 of 310 nM.
